Laboratory results as given in patent US10179770B2, “Quinolines derivatives as novel anticancer agents” (GENOSCIENCE PHARMA, priority 2013, dated 2019).

Tests used:
Test in all cases: NCI-60 screen (SRB)
Format in all cases: cell-based
A498 = A498 (Renal)
Experimental: (§1) The human tumor cell lines of the cancer screening panel are grown in RPMI 1640 medium containing 5% fetal bovine serum and 2 mM L-glutamine. For a typical screening experiment, cells are inoculated into 96 well microtiter plates in 100 μL at plating densities ranging from 5,000 to 40,000 cells/well depending on the doubling time of individual cell lines. After cell inoculation, the microtiter plates are incubated at 37° C., 5% CO2, 95% air and 100% relative humidity for 24 h prior to addition of experimental drugs.
(§2) After 24 h, two plates of each cell line are fixed in situ with TCA, to represent a measurement of the cell population for each cell line at the time of drug addition (Tz). Experimental drug is solubilized in dimethyl sulfoxide at 400-fold the desired final maximum test concentration and stored frozen prior to use. At the time of drug addition, an aliquot of frozen concentrate is thawed and diluted to twice the desired final maximum test concentration with complete medium containing 50 μg/ml gentamicin. Additional four, 10-fold or ½ log serial dilutions are made to provide a total of five drug concentrations plus control. Aliquots of 100 μl of these different drug dilutions are added to the appropriate microtiter wells already containing 100 μl of medium, resulting in the required final drug concentrations.
(§3) Following drug addition, the plates are incubated for an additional 48 h at 37° C., 5% CO2, 95% air, and 100% relative humidity. For adherent cells, the assay is terminated by the addition of cold TCA. Cells are fixed in situ by the gentle addition of 50 μl of cold 50% (w/v) TCA (final concentration, 10% TCA) and incubated for 60 minutes at 4° C. The supernatant is discarded, and the plates are washed five times with tap water and air dried. Sulforhodamine B (SRB) solution (100 μl) at 0.4% (w/v) in 1% acetic acid is added to each well, and plates are incubated for 10 minutes at room temperature. After staining, unbound dye is removed by washing five times with 1% acetic acid and the plates are air dried. Bound stain is subsequently solubilized with 10 mM trizma base, and the absorbance is read on an automated plate reader at a wavelength of 515 nm. For suspension cells, the methodology is the same except that the assay is terminated by fixing settled cells at the bottom of the wells by gently adding 50 μl of 80% TCA (final concentration, 16% TCA). Using the seven absorbance measurements [time zero, (Tz), control growth, (C), and test growth in the presence of drug at the five concentration levels (Ti)], the percentage growth is calculated at each of the drug concentrations levels.
(§4) Percentage growth inhibition is calculated as: [(Ti−Tz)/(C−Tz)]×100 for concentrations for which Ti>/=Tz (1) [(Ti−Tz)/Tz]×100 for concentrations for which Ti<Tz (2)
(§5) Growth inhibition of 50% (GI50) is calculated from [(Ti−Tz)/(C−Tz)]×100=50 (3)
(§6) which is the drug concentration resulting in a 50% reduction in the net protein increase (as measured by SRB staining) in control cells during the drug incubation.
(§7) The drug concentration resulting in total growth inhibition (TGI) is calculated from Ti=Tz (4)
(§8) The LC50 (concentration of drug resulting in a 50% reduction in the measured protein at the end of the drug treatment as compared to that at the beginning) indicating a net loss of cells following treatment is calculated from [(Ti−Tz)/Tz]×100=−50 (5)
(§9) Values are calculated for each of these three parameters if the level of activity is reached; however, if the effect is not reached or is exceeded, the value for that parameter is expressed as greater or less than the maximum or minimum concentration tested.

ACHN = ACHN (Renal)
Experimental: as §1, §2, §3, §4, §5, §6, §7, §8, §9

BT-549 = BT-549 (Breast)
Experimental: as §1, §2, §3, §4, §5, §6, §7, §8, §9

CAKI-1 = CAKI-1 (Renal)
Experimental: as §1, §2, §3, §4, §5, §6, §7, §8, §9

DU-145 = DU-145 (Prostate)
Experimental: as §1, §2, §3, §4, §5, §6, §7, §8, §9

HCT-15 = HCT-15 (Colon)
Experimental: as §1, §2, §3, §4, §5, §6, §7, §8, §9

HT29 = HT29 (Colon)
Experimental: as §1, §2, §3, §4, §5, §6, §7, §8, §9

K-562 = K-562 (Leukemia)
Experimental: as §1, §2, §3, §4, §5, §6, §7, §8, §9

MCF7 = MCF7 (Breast)
Experimental: as §1, §2, §3, §4, §5, §6, §7, §8, §9

NCI-H322M = NCI-H322M (Non-Small Cell Lung)
Experimental: as §1, §2, §3, §4, §5, §6, §7, §8, §9

NCI-H460 = NCI-H460 (Non-Small Cell Lung)
Experimental: as §1, §2, §3, §4, §5, §6, §7, §8, §9

NCI-H522 = NCI-H522 (Non-Small Cell Lung)
Experimental: as §1, §2, §3, §4, §5, §6, §7, §8, §9

SK-OV3 = SK-OV3 (Ovarian)
Experimental: as §1, §2, §3, §4, §5, §6, §7, §8, §9

SR = SR (Leukemia)
Experimental: as §1, §2, §3, §4, §5, §6, §7, §8, §9

SW-620 = SW-620 (Colon)
Experimental: as §1, §2, §3, §4, §5, §6, §7, §8, §9

TK-10 = TK-10 (Renal)
Experimental: as §1, §2, §3, §4, §5, §6, §7, §8, §9

U251 = U251 (CNS)
Experimental: as §1, §2, §3, §4, §5, §6, §7, §8, §9

[1] = Homo sapiens, read-out: LC50 (the source's name)

Structure (SMILES): CC(C)(C)NC1CCN(c2cc(-c3ccc(Cl)cc3)nc3ccccc23)CC1.Cl.Cl [XII-4, 2-(4-chloro-phenyl)-4-(4-N-tert-butylamino-piperidin-1-yl)quinoline dihydrochloride]
- Growth percent at 10 μM (A498): +++ (cell growth 20 > % < 40)
- Growth percent at 10 μM (ACHN): + (cell growth 60 > % < 80)
- Growth percent at 10 μM (BT-549): − (cell growth % > 80)
- Growth percent at 10 μM (CAKI-1): +++ (cell growth 20 > % < 40)
- Growth percent at 10 μM (DU-145): − (cell growth % > 80)
- Growth percent at 10 μM (HCT-15): ++++ (cell growth 0 > % < 20)
- Growth percent at 10 μM (HT29): × (cell growth 0 < % > −20)
- Growth percent at 10 μM (K-562): × (cell growth 0 < % > −20)
- Growth percent at 10 μM (MCF7): ++ (cell growth 40 > % < 60)
- Growth percent at 10 μM (NCI-H322M): ++ (cell growth 40 > % < 60)
- Growth percent at 10 μM (NCI-H460): ++ (cell growth 40 > % < 60)
- Growth percent at 10 μM (NCI-H522): + (cell growth 60 > % < 80)
- Growth percent at 10 μM (SK-OV3): − (cell growth % > 80)
- Growth percent at 10 μM (SR): ++++ (cell growth 0 > % < 20)
- Growth percent at 10 μM (SW-620): ++++ (cell growth 0 > % < 20)
- Growth percent at 10 μM (TK-10): − (cell growth % > 80)
- Growth percent at 10 μM (U251): ++ (cell growth 40 > % < 60)

Structure (SMILES): CCN(CC)C1CCN(C(C)c2cc(-c3ccccc3)nc3ccccc23)CC1.Cl.Cl (stereo not shown) [XIX-3, 2-phenyl-4-{1-[4-(N,N-diethylamino)piperidin-1-yl]-eth-1-yl}quinoline dihydrochloride]
- TGI (A498): 20 µM
- Growth percent at 10 μM (A498): ++ (cell growth 40 > % < 60)
- GI50 (A498; Homo sapiens): 5 µM
- LC50 (A498; Homo sapiens): 54 µM
- TGI (ACHN): 23 µM
- Growth percent at 10 μM (ACHN): + (cell growth 60 > % < 80)
- GI50 (ACHN; Homo sapiens): 11 µM
- LC50 (concentration causing 50% net cell kill) (ACHN; Homo sapiens): 50 µM
- TGI (BT-549): 27 µM
- Growth percent at 10 μM (BT-549): + (cell growth 60 > % < 80)
- GI50 (BT-549; Homo sapiens): 13 µM
- CC50 (BT-549; [1]): 56 µM
- TGI (CAKI-1): 28 µM
- Growth percent at 10 μM (CAKI-1): + (cell growth 60 > % < 80)
- GI50 (CAKI-1; Homo sapiens): 13 µM
- CC50 (CAKI-1; [1]): 58 µM
- TGI (DU-145): 28 µM
- Growth percent at 10 μM (DU-145): − (cell growth % > 80)
- GI50 (DU-145; Homo sapiens): 14 µM
- CC50 (DU-145; [1]): 54 µM
- TGI (HCT-15): 14 µM
- Growth percent at 10 μM (HCT-15): ++++ (cell growth % < 20)
- GI50 (HCT-15; Homo sapiens): 3 µM
- CC50 (HCT-15; [1]): 47 µM
- TGI (HT29): 7 µM
- Growth percent at 10 μM (HT29): ++++ (cell growth % < 20)
- GI50 (HT29; Homo sapiens, HT-29): 2 µM
- CC50 (HT29; Homo sapiens, HT-29, read-out: LC50 (the source's name)): 32 µM
- GI50 (K-562; Homo sapiens, K562): 2 µM
- CC50 (K-562; Homo sapiens, K562, read-out: LC50 (the source's name)): 15 µM
- TGI (K-562): 5 µM
- Growth percent at 10 μM (K-562): × (cell growth 0 > % > −20)
- GI50 (MCF7; Homo sapiens): 8 µM
- LC50 (50% lethal concentration) (MCF7; Homo sapiens): 56 µM
- TGI (MCF7): 22 µM
- Growth percent at 10 μM (MCF7): ++ (cell growth 40 > % < 60)
- GI50 (NCI-H322M; Homo sapiens): 11 µM
- CC50 (NCI-H322M; [1]): 52 µM
- TGI (NCI-H322M): 24 µM
- Growth percent at 10 μM (NCI-H322M): + (cell growth 60 > % < 80)
- GI50 (NCI-H460; Homo sapiens): 7 µM
- CC50 (NCI-H460; [1]): 54 µM
- TGI (NCI-H460): 22 µM
- Growth percent at 10 μM (NCI-H460): + (cell growth 60 > % < 80)
- GI50 (NCI-H522; Homo sapiens): 15 µM
- CC50 (NCI-H522; [1]): 66 µM
- TGI (NCI-H522): 32 µM
- Growth percent at 10 μM (NCI-H522): +++ (cell growth 20 > % < 40)
- GI50 (SK-OV3; Homo sapiens, SK-OV-3): 17 µM
- LC50 (concentration killing 50% of cells) (SK-OV3; Homo sapiens, SK-OV-3): 59 µM
- TGI (SK-OV3): 31 µM
- Growth percent at 10 μM (SK-OV3): − (cell growth % > 80)
- GI50 (SR; Homo sapiens): 3 µM
- CC50 (SR; [1]): 49 µM
- TGI (SR): 7 µM
- Growth percent at 10 μM (SR): × (cell growth 0 > % > −20)
- GI50 (SW-620; Homo sapiens): 4 µM
- CC50 (SW-620; [1]): 45 µM
- TGI (SW-620): 17 µM
- Growth percent at 10 μM (SW-620): ++ (cell growth 40 > % < 60)
- GI50 (TK-10; Homo sapiens): 13 µM
- LC50 (concentration causing 50% net cell kill) (TK-10; Homo sapiens): 26 µM
- TGI (TK-10): 26 µM
- Growth percent at 10 μM (TK-10): − (cell growth % > 80)
- GI50 (U251; Homo sapiens, U-251): 6 µM
- CC50 (U251; Homo sapiens, U-251, read-out: LC50 (the source's name)): 49 µM
- TGI (U251): 20 µM
- Growth percent at 10 μM (U251): +++ (cell growth 20 > % < 40)
